≈ marks a conversion by molar mass, not a printed value. Some results are limits rather than exact numbers.

One may read the IC50 as the point on the concentration scale where inhibition reaches its midpoint. Read a high IC50 as weaker potency. For orientation: MIC means the lowest concentration found to suppress growth. High values mean a need for much substance, low ones inhibition by little substance.

For one assay, the system named is A549. Kind of assay: Compound was tested for its cytotoxicity against A 549 cell line. To be noted: Homo sapiens. Format: functional, cell-based.
Another assay relates to P388. The experiment in a line: Compound was tested for its cytotoxicity against P388 cell line. Format: functional, cell-based. To be noted: Mus musculus.
Another assay concerns Micrococcus luteus. The experiment in a line: Compound was tested for minimum inhibitory concentration against Micrococcus luteus ATCC 9341. Format: functional.
The subject of another assay is Pseudomonas aeruginosa. Kind of assay: Compound was tested for minimum inhibitory concentration against Pseudomonas aeruginosa […]. Format: functional.
A further assay concerns Escherichia coli. Kind of assay: Compound was tested for minimum inhibitory concentration against Escherichia coli […]. Format: functional.
For a further assay, the system named is Staphylococcus aureus. Kind of assay: Compound was tested for minimum inhibitory concentration against Staphylococcus aureus ATCC 25923. Format: functional.

For the compound `C[C@H](CC(=O)O)[C@]1(C)CC=C2C3=CCC4C(C)(C)[C@H](O)CC[C@]4(C)[C@@H]3CC[C@]21C` (stereo partly specified), the IC50 was found to be 60 µM with A549 and 55 µM in the assay with P388.

For the compound `C[C@H](Cc1cc(C(=O)O)co1)[C@]1(C)CC=C2C3=CCC4C(C)(C)[C@H](O)CC[C@]4(C)[C@@H]3CC[C@]21C` (stereo partly specified), the MIC is 13 µM (≈ 6.07 µg/mL) against Micrococcus luteus, greater than 215 µM in the assay with Pseudomonas aeruginosa, 107 µM (≈ 49.9 µg/mL) with Escherichia coli and 27 µM (≈ 12.6 µg/mL) with Staphylococcus aureus. Besides, the IC50 in the assay with A549 was 54 µM; in the assay with P388, 50 µM.

As to `C=C[C@@](C)(/C=C/c1ccc(O)cc1)CCC=C(C)C` [BAKUCHIOL], the MIC with Micrococcus luteus was 10 µM (≈ 2.56 µg/mL); in the assay with Pseudomonas aeruginosa it was greater than 780 µM; with Escherichia coli it was greater than 780 µM; in the assay with Staphylococcus aureus, 19 µM (≈ 4.87 µg/mL).

`C=CCc1ccc(O)c(-c2cc(CC=C)ccc2O)c1` [MAGNOLOL]: the minimum inhibitory concentration (MIC) against Micrococcus luteus is 48 µM (≈ 12.8 µg/mL); against Pseudomonas aeruginosa, greater than 750 µM; against Escherichia coli, greater than 750 µM; against Staphylococcus aureus it was 48 µM (≈ 12.8 µg/mL).

The values above are taken from ChEMBL document CHEMBL1133870, “Two novel cytotoxic and antimicrobial triterpenoids from Pseudolarix kaempferi” (Bioorg Med Chem Lett, 2001).
